Several values for one entry are separate records, joined by “and”; a condition that tells them apart may be missing. Equal entries are not always repeated. One block for each compound: values may come before it.
Test system: 782815-120-R-J1-PDC complex spheroid viability
Assay: Anticancer human tumor 782815-120-R-J1-PDC patient-derived colon adenocarcinoma cell line growth inhibition [RAS]
Conditions: for viability, T/C: stronger effect = lower value
Procedure, shortened: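 Multi-cell-type spheroids: tumor cells plus HUVEC endothelial cells and mesenchymal stem cells. RAS-pathway inhibitors were combined with targeted agents, each dosed in half-log steps down from clinical Cmax, or from 10 microM when Cmax was unknown.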
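Further: spheroids exposed to compounds for 7 days before reading.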
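Wherever viability, T/C is given: 100% = DMSO vehicle control viability.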

IC50 (curve of compound): > 10000 nM
Compound: Cc1nc(N2CCC3(CC2)COC(C)C3N)c(CO)nc1Sc1ccnc(N)c1Cl (stereo not given)
viability, T/C (compound 0.0316 µM): 96.6% [middle of 4 runs]
viability, T/C (compound 0.1 µM): 99.8% [middle of 4 runs]
viability, T/C (compound 0.316 µM): 93.7% [middle of 4 runs]
viability, T/C (compound 1 µM): 94.7% [middle of 4 runs]
viability, T/C (compound 3.16 µM): 98.3% [middle of 4 runs]
viability, T/C (compound 10 µM): 104% [middle of 4 runs]

IC50 (curve of compound): > 300 nM and 76.6 nM and 223 nM
Compound: CC1(C)CCC(Nc2ncc(C(F)(F)F)c(-c3c[nH]c4c(P(C)(C)=O)c(C#N)ccc34)n2)CN1 (stereo not given)
viability, T/C (compound 0.000949 µM): 107% [middle of 4 runs]
viability, T/C (compound 0.003 µM): 85% [middle of 4 runs]
viability, T/C (compound 0.03 µM): 65.3% [middle of 4 runs]
viability, T/C (compound 0.0949 µM): 59.4% [middle of 4 runs]
viability, T/C (compound 0.3 µM): 57.8% [middle of 4 runs]

IC50 (curve of first compound, second compound 0.0316 µM): > 1000 nM
IC50 (curve of first compound, second compound 0.1 µM): > 1000 nM
IC50 (curve of first compound, second compound 0.316 µM): > 1000 nM
IC50 (curve of first compound, second compound 1 µM): > 1000 nM
IC50 (curve of first compound, second compound 3.16 µM): > 1000 nM
IC50 (curve of first compound, second compound 10 µM): > 1000 nM
Compound: CCN1CCN(Cc2ccc(Nc3ncc(F)c(-c4cc(F)c5nc(C)n(C(C)C)c5c4)n3)nc2)CC1 + C#Cc1c(F)ccc2cc(O)cc(-c3ncc4c(N5CC6CCC(C5)N6)nc(OCC56CCCN5CC(F)C6)nc4c3F)c12
viability, T/C (second compound 0.0316 µM, first compound 0.00316 µM): 103%
viability, T/C (second compound 0.0316 µM, first compound 0.01 µM): 105%
viability, T/C (second compound 0.0316 µM, first compound 0.0316 µM): 112%
viability, T/C (second compound 0.0316 µM, first compound 0.1 µM): 102%
viability, T/C (second compound 0.0316 µM, first compound 0.316 µM): 109%
viability, T/C (second compound 0.0316 µM, first compound 1 µM): 123%
viability, T/C (second compound 0.1 µM, first compound 0.00316 µM): 107%
viability, T/C (second compound 0.1 µM, first compound 0.01 µM): 104%
viability, T/C (second compound 0.1 µM, first compound 0.0316 µM): 95.8%
viability, T/C (second compound 0.1 µM, first compound 0.1 µM): 104%
viability, T/C (second compound 0.1 µM, first compound 0.316 µM): 113%
viability, T/C (second compound 0.1 µM, first compound 1 µM): 130%
viability, T/C (second compound 0.316 µM, first compound 0.00316 µM): 108%
viability, T/C (second compound 0.316 µM, first compound 0.01 µM): 101%
viability, T/C (second compound 0.316 µM, first compound 0.0316 µM): 100%
viability, T/C (second compound 0.316 µM, first compound 0.1 µM): 110%
viability, T/C (second compound 0.316 µM, first compound 0.316 µM): 106%
viability, T/C (second compound 0.316 µM, first compound 1 µM): 119%
viability, T/C (second compound 1 µM, first compound 0.00316 µM): 110%
viability, T/C (second compound 1 µM, first compound 0.01 µM): 109%
viability, T/C (second compound 1 µM, first compound 0.0316 µM): 108%
viability, T/C (second compound 1 µM, first compound 0.1 µM): 103%
viability, T/C (second compound 1 µM, first compound 0.316 µM): 111%
viability, T/C (second compound 1 µM, first compound 1 µM): 113%
viability, T/C (second compound 3.16 µM, first compound 0.00316 µM): 103%
viability, T/C (second compound 3.16 µM, first compound 0.01 µM): 99.2%
viability, T/C (second compound 3.16 µM, first compound 0.0316 µM): 101%
viability, T/C (second compound 3.16 µM, first compound 0.1 µM): 104%
viability, T/C (second compound 3.16 µM, first compound 0.316 µM): 128%
viability, T/C (second compound 3.16 µM, first compound 1 µM): 119%
viability, T/C (second compound 10 µM, first compound 0.00316 µM): 109%
viability, T/C (second compound 10 µM, first compound 0.01 µM): 107%
viability, T/C (second compound 10 µM, first compound 0.0316 µM): 95.3%
viability, T/C (second compound 10 µM, first compound 0.1 µM): 107%
viability, T/C (second compound 10 µM, first compound 0.316 µM): 120%
viability, T/C (second compound 10 µM, first compound 1 µM): 125%

From PubChem BioAssay AID2060887 (Molecular Pharmacology Branch, DTP, NCI, 2025)
